The target in assay [1] is T1, human pancreatic lipase (hPL) (Homo sapiens, UniProt P16233).
T1 construct: gene PNLIP
T1 sequence (P16233 17-465): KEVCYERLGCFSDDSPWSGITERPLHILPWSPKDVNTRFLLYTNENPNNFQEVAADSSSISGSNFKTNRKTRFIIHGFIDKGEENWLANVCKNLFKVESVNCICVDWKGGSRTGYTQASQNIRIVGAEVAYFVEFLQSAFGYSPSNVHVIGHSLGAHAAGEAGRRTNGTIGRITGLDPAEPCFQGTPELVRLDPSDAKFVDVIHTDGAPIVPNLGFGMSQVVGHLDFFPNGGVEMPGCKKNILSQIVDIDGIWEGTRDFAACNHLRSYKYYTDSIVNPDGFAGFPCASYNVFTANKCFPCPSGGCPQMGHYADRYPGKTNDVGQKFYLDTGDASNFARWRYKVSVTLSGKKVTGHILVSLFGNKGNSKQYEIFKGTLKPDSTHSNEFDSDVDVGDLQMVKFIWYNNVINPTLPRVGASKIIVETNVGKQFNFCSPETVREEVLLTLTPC
The experiment in a line: Michaelis-Menten kinetics of fluorogenic substrate hydrolysis (Km). The assay is classed as biochemical.

Assay [2] concerns the target T1, human pancreatic lipase (hPL). The settings on record: 10 µM; inhibitor.
The target is the same in assay [3]. As to the kind of experiment: RLE-based fluorescence hydrolysis assay, dose-inhibition. It is filed as biochemical.

For orientation: Km means the concentration of substrate that gives half-maximal velocity. In general, pIC50 refers to −log10 of the IC50, conventionally taken in molar units. A lower pIC50 goes with a large IC50.

pIC50: −log10 of the molar value. Structures can show the parent of a compound that is named as a salt.

In the case of `CCCCCCCCCCCC(=O)Oc1ccc2nc3ccc(=O)cc-3oc2c1` [RLE, 3-oxo-3H-phenoxazin-7-yl dodecanoate], the Km in assay [1] stood at 10.4 µM.
As to `CN(C/C=C/C#CC(C)(C)C)Cc1cccc2ccccc12` [Terbinafine Hydrochloride], the “% of control remaining” value in assay [2] was found to be 91.01%.
On to `CC(C)(C)NCC(O)c1cc(O)cc(O)c1` (centres unmarked) [Terbutaline], for which the “% of control remaining” value in assay [2] is reported as 108.89%.
Take `CCC(=O)O[C@H]1CC[C@H]2[C@@H]3CCC4=CC(=O)CC[C@]4(C)[C@H]3CC[C@]12C` [Testosterone propionate]: the “% of control remaining” value in assay [2] amounted to 65.37%.
As to `CCN(CC)CCNC(=O)c1cc(S(C)(=O)=O)ccc1OC` [Tiapride], the “% of control remaining” value in assay [2] came to 108.20%.
Consider `C[C@H]1CC[C@@]2(OC1)O[C@H]1C[C@H]3[C@@H]4CC[C@@H]5C[C@@H](O[C@@H]6O[C@H](CO)[C@H](O)[C@H](O)[C@H]6O[C@@H]6O[C@H](CO)[C@@H](O)[C@H](O)[C@H]6O)CC[C@]5(C)[C@H]4CC[C@]3(C)[C@H]1[C@@H]2C` [Timosaponin A-III], for which the “% of control remaining” value in assay [2] was 95.12%.
The same measure, in the same setting: to `CC(=O)O[C@@H]1C[C@H](O)[C@@]23CO[C@@H](O)[C@]1(C)[C@@H]2C[C@@H](O)[C@]1(C)[C@@H]3C(=O)[C@H](OC(C)=O)[C@@]2(C)[C@H](c3ccoc3)C[C@H]3O[C@]321` [Toosendanin] belongs 72.37%; to `CN[C@H](CC(C)C)C(=O)N[C@H]1C(=O)N[C@@H](CC(N)=O)C(=O)N[C@H]2C(=O)N[C@H]3C(=O)N[C@H](C(=O)N[C@H](C(=O)O)c4cc(O)cc(O)c4-c4cc3ccc4O)[C@H](O)c3ccc(c(Cl)c3)Oc3cc2cc(c3O[C@@H]2O[C@H](CO)[C@@H](O)[C@H](O)[C@H]2O[C@H]2C[C@](C)(N)[C@H](O)[C@H](C)O2)Oc2ccc(cc2Cl)[C@H]1O` [Vancomycin], 96.04%.
`COc1cc2/c(=N/c3ccc(Br)cc3F)nc[nH]c2cc1OCC1CCN(C)CC1` [Vandetanib]: the “% of control remaining” value in assay [2] was determined as 104.95%.
Same read-out and setting: to `CC(=O)CC(c1ccccc1)c1c(O)c2ccccc2oc1=O` (centres unmarked) [Warfarin sodium] belongs 84.05%; to `COc1c(O)cc(O)c2c(=O)cc(-c3ccccc3)oc12` [Wogonin], 106.17%.
On to `COc1cc(O)c2c(c1C(=O)/C=C/c1ccc(O)cc1)OC(C)(C)C(O)C2` (centres unmarked) [Xanthohumol L], for which the “% of control remaining” value in assay [2] was 100.78%.
For `COc1cc(O)c(CC=C(C)C)c(O)c1C(=O)/C=C/c1ccc(O)cc1` [Xanthohumol], in assay [2], the “% of control remaining” value is listed as 81.19%.
For `CCC/C=C1\OC(=O)C2=C1CCC=C2` [Z-Ligustilide], in assay [2], the “% of control remaining” value was determined as 83.60%.
Take `Cc1cn([C@H]2C[C@H](N=[N+]=[N-])[C@@H](CO)O2)c(=O)[nH]c1=O` [Zidovudine]: the “% of control remaining” value in assay [2] is 73.04%.
On the same count and under the same terms, in the case of `CC(NC(C)(C)C)C(=O)c1cccc(Cl)c1` (centres unmarked) [bupropion hydrochloride] it was 120.79%.
As to `O=C(c1ccc(OCCN2CCCCC2)cc1)c1c(-c2ccc(O)cc2)sc2cc(O)ccc12` [d1, raloxifene], the pIC50 in assay [3] was 5.25. In addition, the “% of control remaining” value in assay [2] amounted to 4.05%.
Take `O=C(O)Cc1ccccc1Nc1c(Cl)cccc1Cl` [diclofenzc]: the “% of control remaining” value in assay [2] was 97.62%.
On to `CNC(=O)c1cc(Oc2ccc(NC(=O)Nc3ccc(Cl)c(C(F)(F)F)c3)cc2)ccn1` [f1, sorafenib tosylate], for which the pIC50 in assay [3] is 4.81. The “% of control remaining” value in assay [2] is on record as 44.04%.
Turning to `COc1c(O)c(O)cc2oc(-c3ccc(O)c(O)c3)c(O)c(=O)c12` [g2, 2-(3,4-Dihydroxyphenyl)-3,6,7-trihydroxy-5-methoxy-4H-1-benzopyran-4-one], the “% of control remaining” value in assay [2] was 59.87%.
With `CC(C)c1cc2c(c(O)c1O)[C@@]13CCCC(C)(C)[C@@H]1C[C@@H]2OC3=O` [h9, carnosol], the pIC50 in assay [3] was 6.24. The “% of control remaining” value in assay [2] is listed as 4.20%.
For the compound `COc1ccc(-c2cc(=O)c3c(O)cc(O)c(-c4cc(-c5cc(=O)c6c(O)cc(OC)cc6o5)ccc4OC)c3o2)cc1` [h10, sciadopitysin], in assay [3], the pIC50 was 5.87. In addition, the “% of control remaining” value in assay [2] turned out to be 5.25%.
Take `O=C(O)/C=C/c1ccc(O)cc1` [p-Coumaric acid]: the “% of control remaining” value in assay [2] is 98.98%.
On the same count and under the same terms, to `COC(=O)[C@@]1(C)CC[C@]2(C(=O)O)CC[C@]3(C)C(=CC[C@@H]4[C@@]5(C)C[C@H](O)[C@H](O)[C@@](C)(CO)[C@@H]5CC[C@]43C)[C@@H]2C1` [phytolaccagenin] belongs 85.42%.
For the compound `O=C(O)/C=C/c1ccccc1` [trans-Cinnamic acid], the “% of control remaining” value in assay [2] came out at 72.50%.

The record behind these values is paper PMC9953885 (Biosensors, 2023).
